Data reported in US9266883B2, “Ring-fused bicyclic pyridyl derivatives as FGFR4 inhibitors” (Novartis AG, priority 2013, dated 2016).
Values joined by “and” are separate entries in the source; they are usually repeats but may differ in a detail not shown here. Identical values can stand only once. Like-named read-outs stand apart in the source and are kept apart here.

Legend:
[1] = molecular target: FGFR4 (GST-FGFR4(388-802)) (Homo sapiens (Human), UniProt P22455); assay: In-vitro biochemical kinase assay for FGFR4 (Caliper microfluidic mobility shift)
Tel-FGFR4 = Tel-FGFR4 (Homo sapiens (Human), UniProt P22455); assay: In vitro cellular kinase assay for FGFR4 (BaF3-Tel-FGFR4 cells, MSD capture ELISA of tyrosine phosphorylation); format: cell-based
[2] = biochemical FGFR4 assay, read-out: Biochemical IC50
[3] = Cellular BaF3 FGFR4 assay, read-out: Cellular IC50
[4] = read-out: Biochemical FGFR4 IC50
[5] = BaF3-Tel-FGFR4 cells, 1 hour incubation, read-out: Cellular BaF3 FGFR4 IC50

Chain of FGFR4 (GST-FGFR4(388-802)) (P22455 388-802): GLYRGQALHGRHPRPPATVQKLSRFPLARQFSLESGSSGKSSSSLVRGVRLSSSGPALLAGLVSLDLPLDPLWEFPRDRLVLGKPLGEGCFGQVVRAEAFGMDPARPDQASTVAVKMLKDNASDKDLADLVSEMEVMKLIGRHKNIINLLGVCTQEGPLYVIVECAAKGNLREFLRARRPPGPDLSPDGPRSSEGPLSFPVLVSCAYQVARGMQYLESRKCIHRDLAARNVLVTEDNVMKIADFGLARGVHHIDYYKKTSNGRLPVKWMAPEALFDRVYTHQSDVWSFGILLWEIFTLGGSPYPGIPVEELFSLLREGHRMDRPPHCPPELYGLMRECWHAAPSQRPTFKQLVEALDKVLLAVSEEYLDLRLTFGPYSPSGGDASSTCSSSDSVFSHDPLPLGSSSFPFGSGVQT
Chain of Tel-FGFR4 (P22455 other isoform, or with tags, fused parts or gaps): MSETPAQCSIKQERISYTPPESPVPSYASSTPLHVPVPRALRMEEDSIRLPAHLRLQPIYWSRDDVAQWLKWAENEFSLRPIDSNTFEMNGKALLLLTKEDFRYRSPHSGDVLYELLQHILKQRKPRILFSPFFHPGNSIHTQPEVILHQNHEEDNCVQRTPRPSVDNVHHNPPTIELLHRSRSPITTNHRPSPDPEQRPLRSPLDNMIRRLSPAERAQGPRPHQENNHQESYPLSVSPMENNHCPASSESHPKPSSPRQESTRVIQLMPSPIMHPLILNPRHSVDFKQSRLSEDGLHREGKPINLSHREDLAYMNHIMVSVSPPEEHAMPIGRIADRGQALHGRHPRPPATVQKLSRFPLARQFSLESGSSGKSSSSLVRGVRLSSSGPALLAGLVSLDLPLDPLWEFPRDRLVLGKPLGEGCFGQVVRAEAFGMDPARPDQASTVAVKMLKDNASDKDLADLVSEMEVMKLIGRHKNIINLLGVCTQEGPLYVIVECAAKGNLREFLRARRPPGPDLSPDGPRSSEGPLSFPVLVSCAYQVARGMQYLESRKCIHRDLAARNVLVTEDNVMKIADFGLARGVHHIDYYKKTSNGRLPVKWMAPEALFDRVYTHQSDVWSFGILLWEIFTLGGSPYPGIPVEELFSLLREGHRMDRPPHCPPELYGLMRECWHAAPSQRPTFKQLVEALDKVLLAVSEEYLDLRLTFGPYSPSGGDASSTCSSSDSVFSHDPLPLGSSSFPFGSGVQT

| SMILES | IC50 [1, 2] [nM] | IC50 (Tel-FGFR4; [3]) [nM] | IC50 [1, 4] [nM] | IC50 (Tel-FGFR4; [5]) |
| --- | --- | --- | --- | --- |
| CO[C@@H](C)COc1cc(NC(=O)N2CCCc3cc(CN4CCN(C)CC4=O)c(C=O)nc32)ncc1C#N [(S)-N-(5-cyano-4-(2-methoxypropoxyl)pyridin-2-yl)-7-formyl-6-((4-methyl-2-oxopiperazin-1-yl)methyl)-3,4-dihydro-1,8-naphthyridine-1(2H)-carboxamide] | 2.2 | 10.8 |  |  |
| CC(C)Nc1cc(NC(=O)N2CCCc3cc(CO)c(C=O)nc32)ncc1C#N [N-(5-cyano-4-(isopropylamino)pyridin-2-yl)-7-formyl-6-(hydroxymethyl)-3,4-dihydro-1,8-naphthyridine-1(2H)-carboxamide] | 2 | 8.6 |  |  |
| COC[C@@H](C)Nc1cc(NC(=O)N2CCCc3cc(CN4CCOCC4=O)c(C=O)nc32)ncc1C#N [(R)-N-(5-cyano-4-((1-methoxypropan-2-yl)amino)pyridin-2-yl)-7-formyl-6-((3-oxomorpholino)methyl)-3,4-dihydro-1,8-naphthyridine-1(2H)-carboxamide] | 2.4 | 4.6 |  |  |
| CC(C)Oc1cc(NC(=O)N2CCCc3cc(CN4CCNC(=O)C4)c(C=O)nc32)ncc1C#N [N-(5-cyano-4-isopropoxypyridin-2-yl)-7-formyl-6-((3-oxopiperazin-1-yl)methyl)-3,4-dihydro-1,8-naphthyridine-1(2H)-carboxamide] | 1.6 | 23.5 |  |  |
| CCNc1cc(NC(=O)N2CCCc3cc(CN4CCN(C)CC4=O)c(C=O)nc32)ncc1C#N [N-(5-cyano-4-(ethylamino)pyridin-2-yl)-7-formyl-6-((4-methyl-2-oxopiperazin-1-yl)methyl)-3,4-dihydro-1,8-naphthyridine-1(2H)-carboxamide] | 3.4 | 12 |  |  |
| COC[C@@H](C)Nc1cc(NC(=O)N2CCCc3cc(C(F)F)c(C=O)nc32)ncc1C#N [(R)-N-(5-cyano-4-((1-methoxypropan-2-yl)amino)pyridin-2-yl)-6-(difluoromethyl)-7-formyl-3,4-dihydro-1,8-naphthyridine-1(2H)-carboxamide] | 1.2 | 19 |  |  |
| CN1CCN(Cc2cc3c(nc2C=O)N(C(=O)Nc2cc(OCC(F)F)c(C#N)cn2)CCC3)C(=O)C1 [N-(5-cyano-4-(2,2-difluoroethoxyl)pyridin-2-yl)-7-formyl-6-((4-methyl-2-oxopiperazin-1-yl)methyl)-3,4-dihydro-1,8-naphthyridine-1(2H)-carboxamide] | 1.2 | 6.7 |  |  |
| CC(C)Nc1cc(NC(=O)N2CCCc3cc(C(F)F)c(C=O)nc32)ncc1C#N [N-(5-cyano-4-(isopropylamino)pyridin-2-yl)-6-(difluoromethyl)-7-formyl-3,4-dihydro-1,8-naphthyridine-1(2H)-carboxamide] | 1.3 | 20.3 |  |  |
| CCNc1cc(NC(=O)N2CCCc3cc(CN(CC)C(=O)CN(C)C)c(C=O)nc32)ncc1C#N [N-(5-cyano-4-(ethylamino)pyridin-2-yl)-6-((2-(dimethylamino)-N-ethylacetamido)methyl)-7-formyl-3,4-dihydro-1,8-naphthyridine-1(2H)-carboxamide] | 0.2 | 10.2 |  |  |
| CN1CCN(Cc2cc3c(nc2C=O)N(C(=O)Nc2cc(NCC(C)(C)O)c(C#N)cn2)CCC3)C(=O)C1 [N-(5-cyano-4-((2-hydroxy-2-methylpropyl)amino)pyridin-2-yl)-7-formyl-6-((4-methyl-2-oxopiperazin-1-yl)methyl)-3,4-dihydro-1,8-naphthyridine-1(2H)-carboxamide] | 0.9 | 4.8 |  |  |
| CC(C)Oc1cc(NC(=O)N2CCCc3cc(CN4CCNCC4=O)c(C=O)nc32)ncc1C#N [N-(5-cyano-4-isopropoxypyridin-2-yl)-7-formyl-6-((2-oxopiperazin-1-yl)methyl)-3,4-dihydro-1,8-naphthyridine-1(2H)-carboxamide] | 2.1 | 9.9 |  |  |
| N#Cc1cnc(NC(=O)N2CCCc3cc(CO)c(C=O)nc32)cc1OCC1CCCO1 (racemic) [Example 43, N-(5-cyano-4-((tetrahydrofuran-2-yl)methoxy)pyridin-2-yl)-7-formyl-6-(hydroxymethyl)-3,4-dihydro-1,8-naphthyridine-1(2H)-carboxamide] |  |  | 5.2 | 7.5 nM |
| N#Cc1cnc(NC(=O)N2CCCc3cc(C(F)F)c(C=O)nc32)cc1NCCO [N-(5-cyano-4-((2-hydroxyethyl)amino)pyridin-2-yl)-6-(difluoromethyl)-7-formyl-3,4-dihydro-1,8-naphthyridine-1(2H)-carboxamide] | 1 | 5.5 |  |  |
| N#Cc1cnc(NC(=O)N2CCCc3ccc(C=O)nc32)cc1C1=CCOCC1 [Example 30, N-(5-cyano-4-(3,6-dihydro-2H-pyran-4-yl)pyridin-2-yl)-7-formyl-3,4-dihydro-1,8-naphthyridine-1(2H)-carboxamide] |  |  | 5.5 | 428 nM |
| COC[C@@H](C)Nc1cc(NC(=O)N2CCCc3cc(CN4CCCC4=O)c(C=O)nc32)ncc1C#N [(R)-N-(5-cyano-4-((1-methoxypropan-2-yl)amino)pyridin-2-yl)-7-formyl-6-((2-oxopyrrolidin-1-yl)methyl)-3,4-dihydro-1,8-naphthyridine-1(2H)-carboxamide] | 0.6 | 4.8 |  |  |
| CN1CCN(Cc2cc3c(nc2C=O)N(C(=O)Nc2cc(OCCO)c(C#N)cn2)CCC3)C(=O)C1 [Example 199, N-(5-cyano-4-(2-hydroxyethoxyl)pyridin-2-yl)-7-formyl-6-((4-methyl-2-oxopiperazin-1-yl)methyl)-3,4-dihydro-1,8-naphthyridine-1(2H)-carboxamide] |  |  | 2.3 | 19.3 nM |
| COC[C@H](C)Nc1cc(NC(=O)N2CCCc3cc(CN(C)C(C)=O)c(C=O)nc32)ncc1C#N [(S)-N-(5-cyano-4-((1-methoxypropan-2-yl)amino)pyridin-2-yl)-7-formyl-6-((N-methylacetamido)methyl)-3,4-dihydro-1,8-naphthyridine-1(2H)-carboxamide] | 1 | 4.2 |  |  |
| COc1nc(NC(=O)N2CCCc3cc(CN4CCN(C)CC4=O)c(C=O)nc32)ncc1C#N [N-(5-cyano-4-methoxypyrimidin-2-yl)-7-formyl-6-((4-methyl-2-oxopiperazin-1-yl)methyl)-3,4-dihydro-1,8-naphthyridine-1(2H)-carboxamide] | 49 | 75 |  |  |
| CCN(Cc1cc2c(nc1C=O)N(C(=O)Nc1cc(NC)c(C#N)cn1)CCC2)C(=O)CN(C)C [N-(5-cyano-4-(methylamino)pyridin-2-yl)-6-((2-(dimethylamino)-N-ethylacetamido)methyl)-7-formyl-3,4-dihydro-1,8-naphthyridine-1(2H)-carboxamide] | 12 | 13 |  |  |
| COCCNc1cc(NC(=O)N2CCCc3cc(CN4CCNC(C)(C)C4=O)c(C=O)nc32)ncc1C#N [N-(5-cyano-4-((2-methoxyethyl)amino)pyridin-2-yl)-6-((3,3-dimethyl-2-oxopiperazin-1-yl)methyl)-7-formyl-3,4-dihydro-1,8-naphthyridine-1(2H)-carboxamide] | 0.1 | 5.9 |  |  |
| COCCNc1cc(NC(=O)N2CCCc3cc(CN4C(=O)CN(C)CC4(C)C)c(C=O)nc32)ncc1C#N [N-(5-cyano-4-((2-methoxyethyl)amino)pyridin-2-yl)-7-formyl-6-((2,2,4-trimethyl-6-oxopiperazin-1-yl)methyl)-3,4-dihydro-1,8-naphthyridine-1(2H)-carboxamide] | 1.4 | 11 |  |  |
| COC(C)(C)CNc1cc(NC(=O)N2CCCc3cc(C(F)F)c(C=O)nc32)ncc1C#N [N-(5-cyano-4-((2-methoxy-2-methylpropyl)amino)pyridin-2-yl)-6-(difluoromethyl)-7-formyl-3,4-dihydro-1,8-naphthyridine-1(2H)-carboxamide] | 5.9 | 37 |  |  |
| CC(C)COc1cc(NC(=O)N2CCCc3cc(C(F)F)c(C=O)nc32)ncc1C#N [N-(5-cyano-4-isobutoxypyridin-2-yl)-6-(difluoromethyl)-7-formyl-3,4-dihydro-1,8-naphthyridine-1(2H)-carboxamide] | 30 | 139 |  |  |
| O=Cc1nc2c(cc1CO)CCCN2C(=O)Nc1ccc(F)cn1 [Example 76, N-(5-fluoropyridin-2-yl)-7-formyl-6-(hydroxymethyl)-3,4-dihydro-1,8-naphthyridine-1(2H)-carboxamide] |  |  | 620 | 1610 nM and > 3000 nM |
| COC[C@H](C)Nc1cc(NC(=O)N2CCCc3cc(CN4CCCC4=O)c(C=O)nc32)ncc1C#N [(S)-N-(5-cyano-4-((1-methoxypropan-2-yl)amino)pyridin-2-yl)-7-formyl-6-((2-oxopyrrolidin-1-yl)methyl)-3,4-dihydro-1,8-naphthyridine-1(2H)-carboxamide] | 1.9 | 4.9 |  |  |
| N#Cc1cnc(NC(=O)N2CCCc3cc(CO)c(C=O)nc32)nc1O[C@H]1CCOC1 [Example 70, (S)-N-(5-cyano-4-((tetrahydrofuran-3-yl)oxy)pyrimidin-2-yl)-7-formyl-6-(hydroxymethyl)-3,4-dihydro-1,8-naphthyridine-1(2H)-carboxamide] |  |  | 27 | 43 nM |
| CC(C)Oc1cc(NC(=O)N2c3nc(C=O)ccc3CCC2C)ncc1C#N (centres unmarked) [N-(5-cyano-4-isopropoxypyridin-2-yl)-7-formyl-2-methyl-3,4-dihydro-1,8-naphthyridine-1(2H)-carboxamide] | 0.9 | 328 |  |  |
| COCCNc1cc(NC(=O)N2CCCc3cc(CN(C)C(C)=O)c(C=O)nc32)ncc1C(F)(F)F [7-formyl-N-(4-((2-methoxyethyl)amino)-5-(trifluoromethyl)pyridin-2-yl)-6-((N-methylacetamido)methyl)-3,4-dihydro-1,8-naphthyridine-1(2H)-carboxamide] | 2.3 | 11.5 |  |  |
